Data: patent US6455567B1, “Method of treatment” (Pfizer Inc., priority 1994, dated 2002)

Legend:
[1] = tested on: neurogenic inflammation in dura mater; conditions: in vivo; cited from earlier work
[2] = tested on: vasodilation in the rat hind paw; assay: Vasodilation (skin blood flow) in the rat hind paw after saphenous nerve stimulation, method of Kajekar et al; assay type: in vivo; conditions: intravenous
Method: The test compound is administered intravenously at different doses and the results are recorded as the change in the increase in skin blood flow.

[3] = tested on: oedema in the rat hind paw; conditions: intravenous, saphenous nerve stimulation; cited from earlier work

SMILES | potency against neurogenic inflammation in dura mater [1] | lowest dose with significant effect on the increase in skin blood flow (vasodilation) [2] [mol/kg] | lowest administered amount with significant effect on ratio of plasma extravasation in the stimulated/unstimulated hind paw [3] [mol/kg]
CNS(=O)(=O)Cc1ccc2[nH]cc(C[C@H]3CCCN3)c2c1 [CP-122,638, (R)-5-(methylaminosulphonylmethyl)-3-(pyrrolidin-2-ylmethyl)-1H-indole] | exhibit potency against neurogenic inflammation |  | 
CNS(=O)(=O)Cc1ccc2[nH]cc(C[C@H]3CCCN3C)c2c1 [CP-122,288, (R)-5-(methylaminosulphonylmethyl)-3-(N-methylpyrrolidin-2-ylmethyl)-1H-indole] | exhibit potency against neurogenic inflammation | 2e-12 | 2e-14
